The source of these data is ChEMBL document CHEMBL1201862, “PubChem BioAssay data set” (2004).

Assay [1] addresses T1, Heat shock factor protein 1 (Mus musculus, UniProt P38532).
T1 sequence (P38532 whole entry): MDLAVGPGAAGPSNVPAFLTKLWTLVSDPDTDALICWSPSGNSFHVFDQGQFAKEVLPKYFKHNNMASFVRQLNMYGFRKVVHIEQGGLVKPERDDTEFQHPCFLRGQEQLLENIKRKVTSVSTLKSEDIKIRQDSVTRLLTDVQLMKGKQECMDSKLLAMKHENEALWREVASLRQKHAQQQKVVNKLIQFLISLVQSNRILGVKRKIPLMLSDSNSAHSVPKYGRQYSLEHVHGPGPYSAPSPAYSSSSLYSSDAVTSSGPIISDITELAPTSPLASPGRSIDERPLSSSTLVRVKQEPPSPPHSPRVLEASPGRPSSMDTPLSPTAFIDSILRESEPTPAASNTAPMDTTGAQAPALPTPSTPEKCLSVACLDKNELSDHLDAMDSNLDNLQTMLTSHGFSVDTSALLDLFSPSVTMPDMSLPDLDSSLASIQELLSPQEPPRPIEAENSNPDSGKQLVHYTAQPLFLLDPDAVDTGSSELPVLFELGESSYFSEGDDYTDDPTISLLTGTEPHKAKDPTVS
The assay can be described thus: HSF1 potentiators in luciferase reporter cells, confirmation, cell-based, NIH3T3, luminescence, dose retest (AID 435004).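 Further: stress induced by proteasome inhibitor MG132 added 30 min after compound; luciferase reporter driven by HSF1 response element in NIH3T3 cells; actives raise luminescence as potentiators of the MG132 stress response.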 It is filed as functional. Background: A reporter such as luciferase makes a cellular process visible.

Assay [2] can be described thus: Luminescence Cell-Based Dose Response HTS to Identify Activators of Luciferase Translation or Activity in H4 […] Cells. [Related pubchem assays: 1829 (Project Summary), 1814 (Primary HTS)]. It counts as functional.
The subject of another assay is H4. The assay is described as follows: Luminescence Cell-Based Dose Response HTS to Identify Activators of 5'UTR Stem-Loop Driven Prion Protein mRNA Translation in H4 Neuroglioblastoma Cells. [Related pubchem assays: 1829 (Project Summary), 1814 (Primary HTS)]. It counts as functional. The note with it: Homo sapiens.
Assay [3] has as its target T2, High affinity choline transporter 1 (Homo sapiens, UniProt Q9GZV3).
T2 sequence (Q9GZV3 whole entry): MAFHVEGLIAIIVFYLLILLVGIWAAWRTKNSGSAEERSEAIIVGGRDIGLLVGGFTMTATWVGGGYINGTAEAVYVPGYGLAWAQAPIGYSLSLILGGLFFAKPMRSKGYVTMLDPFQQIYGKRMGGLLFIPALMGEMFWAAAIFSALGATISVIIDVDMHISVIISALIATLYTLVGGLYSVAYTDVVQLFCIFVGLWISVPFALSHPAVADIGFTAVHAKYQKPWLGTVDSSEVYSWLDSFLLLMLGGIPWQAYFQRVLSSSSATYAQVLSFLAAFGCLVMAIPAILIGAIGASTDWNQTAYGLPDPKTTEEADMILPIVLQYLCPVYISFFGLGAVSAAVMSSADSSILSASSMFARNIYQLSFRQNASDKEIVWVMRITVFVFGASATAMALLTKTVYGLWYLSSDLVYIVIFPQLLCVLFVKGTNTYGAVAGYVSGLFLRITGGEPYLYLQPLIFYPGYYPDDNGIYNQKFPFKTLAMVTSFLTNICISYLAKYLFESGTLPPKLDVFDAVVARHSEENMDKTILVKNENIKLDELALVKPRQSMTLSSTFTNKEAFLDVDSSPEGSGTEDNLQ
The assay is described as follows: CHT inhibitors, dose response, cell-based, 5-point CRC, membrane potential dye (AID 504840). It is filed as functional.

Assay [4] can be described thus: Luminescence Cell-Based Dose Confirmation HTS to Identify Activators of 5'UTR Stem-Loop Driven Alpha-Synuclein mRNA Translation in H4 Neuroglioblastoma Cells. [Related pubchem assays: 1829 (Project Summary), 1814 (Primary HTS)]. It is filed as functional.
Assay [5] has as its system Streptococcus sp. 'group A'. The assay is described as follows: growth inhibition of control SK(-) GAS strain, dose response, counter-screen for streptokinase expression inhibitor project, luminescence, kanamycin, BacTiterGlo, confirmation (AID 1900). It is filed as functional, organism-based.
The target of the next assay is T3, Streptokinase A (Streptococcus pyogenes serotype M1, UniProt P10520).
T3 sequence (P10520 whole entry): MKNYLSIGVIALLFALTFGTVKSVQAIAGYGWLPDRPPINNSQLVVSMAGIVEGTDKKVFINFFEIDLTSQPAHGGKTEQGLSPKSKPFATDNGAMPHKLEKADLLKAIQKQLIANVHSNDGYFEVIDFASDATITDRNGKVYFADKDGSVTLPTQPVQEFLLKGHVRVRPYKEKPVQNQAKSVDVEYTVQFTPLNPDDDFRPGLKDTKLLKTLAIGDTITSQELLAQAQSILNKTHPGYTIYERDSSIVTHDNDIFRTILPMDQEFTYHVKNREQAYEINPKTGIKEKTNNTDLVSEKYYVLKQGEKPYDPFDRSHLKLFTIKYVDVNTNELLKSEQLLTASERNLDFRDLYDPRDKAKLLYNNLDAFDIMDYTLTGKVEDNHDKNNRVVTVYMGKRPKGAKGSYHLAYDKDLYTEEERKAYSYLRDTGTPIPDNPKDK
The assay is described as follows: S. pyogenes streptokinase expression inhibitors, potency, dose response, plasminogen activation absorbance, OD405 (AID 1914).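 Further: secreted streptokinase activity via plasminogen activation per viability signal from cell pellet.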 It counts as functional, Streptococcus pyogenes M1 GAS.

A further assay relates to Streptococcus. The assay is described as follows: Group A Streptococcus viability loss, dose response, counter-screen for streptokinase expression inhibitor project, luminescence, BacTiterGlo (AID 1915).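 Further: potency for reduction of bacterial viability or growth.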 It is filed as functional, organism-based.
The target in assay [6] is T4, Replicative DNA helicase DnaB (Mycobacterium tuberculosis, UniProt P9WMR3).
T4 sequence (P9WMR3 whole entry): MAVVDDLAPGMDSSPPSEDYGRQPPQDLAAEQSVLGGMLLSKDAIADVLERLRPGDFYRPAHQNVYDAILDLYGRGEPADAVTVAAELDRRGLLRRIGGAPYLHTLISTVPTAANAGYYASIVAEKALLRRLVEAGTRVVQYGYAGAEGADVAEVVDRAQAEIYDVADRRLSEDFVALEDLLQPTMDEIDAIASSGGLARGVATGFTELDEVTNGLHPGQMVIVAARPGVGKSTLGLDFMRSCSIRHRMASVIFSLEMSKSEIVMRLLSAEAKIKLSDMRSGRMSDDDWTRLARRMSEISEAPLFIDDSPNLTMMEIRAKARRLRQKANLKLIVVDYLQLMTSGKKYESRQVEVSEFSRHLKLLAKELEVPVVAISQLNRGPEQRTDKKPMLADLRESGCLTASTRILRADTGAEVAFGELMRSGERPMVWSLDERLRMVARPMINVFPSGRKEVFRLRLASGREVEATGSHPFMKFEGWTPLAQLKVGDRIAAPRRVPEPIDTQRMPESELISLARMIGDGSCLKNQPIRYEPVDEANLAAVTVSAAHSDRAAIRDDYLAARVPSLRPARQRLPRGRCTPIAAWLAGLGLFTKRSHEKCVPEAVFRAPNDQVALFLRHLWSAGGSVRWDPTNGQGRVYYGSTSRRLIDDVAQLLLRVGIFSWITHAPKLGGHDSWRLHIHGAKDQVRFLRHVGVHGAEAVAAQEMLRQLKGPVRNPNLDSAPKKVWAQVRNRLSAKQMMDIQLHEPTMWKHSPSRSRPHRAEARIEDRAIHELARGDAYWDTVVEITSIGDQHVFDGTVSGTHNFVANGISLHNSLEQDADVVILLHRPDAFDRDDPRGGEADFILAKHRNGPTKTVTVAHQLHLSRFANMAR
The assay is described as follows: DnaB intein splicing inhibitors, dose response, biochemical, cell-free fluorescence (AID 449749). It is filed as functional.

The target of a further assay is T5, Protein RecA (Mycobacterium tuberculosis, UniProt P9WHJ3).
T5 sequence (P9WHJ3 whole entry): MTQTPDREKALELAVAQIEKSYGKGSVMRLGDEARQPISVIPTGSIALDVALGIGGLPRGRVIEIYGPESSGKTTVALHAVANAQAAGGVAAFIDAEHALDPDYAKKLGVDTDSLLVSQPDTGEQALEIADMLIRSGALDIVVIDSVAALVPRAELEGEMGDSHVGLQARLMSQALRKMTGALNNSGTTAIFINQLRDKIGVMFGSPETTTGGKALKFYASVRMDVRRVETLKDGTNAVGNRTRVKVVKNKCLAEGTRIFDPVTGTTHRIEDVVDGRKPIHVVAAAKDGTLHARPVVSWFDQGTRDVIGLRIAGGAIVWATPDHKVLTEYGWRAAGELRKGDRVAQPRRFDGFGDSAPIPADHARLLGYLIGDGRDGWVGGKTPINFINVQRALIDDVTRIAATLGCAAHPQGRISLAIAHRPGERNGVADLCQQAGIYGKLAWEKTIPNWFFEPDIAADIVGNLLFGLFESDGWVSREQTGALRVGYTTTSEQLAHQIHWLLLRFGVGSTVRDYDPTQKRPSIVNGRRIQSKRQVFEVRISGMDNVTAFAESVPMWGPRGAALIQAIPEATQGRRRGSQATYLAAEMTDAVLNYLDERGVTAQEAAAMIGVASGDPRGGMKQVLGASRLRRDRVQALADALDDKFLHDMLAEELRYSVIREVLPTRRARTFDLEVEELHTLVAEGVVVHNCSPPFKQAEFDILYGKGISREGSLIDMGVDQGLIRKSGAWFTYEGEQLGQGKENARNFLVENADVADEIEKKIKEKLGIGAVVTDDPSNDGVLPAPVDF
The assay is described as follows: Fluorescence Cell-Free Homogeneous Dose Retest to Identify Inhibitors of RecA-Intein Splicing Activity. [Related pubchem assays (depositor defined):AID2097, AID2223, AID489010, AID492950]. It is filed as functional.

Each structure is given as a SMILES string. The source made the active and inactive calls. For most assays here, no stated cut-off is given here; in the data, actives have a measured EC50 and inactives only a lower limit.

As usually defined, the EC50 is the midpoint of the concentration-response curve. With `O=C1C=C(c2ccccc2)CC(/C=C/c2ccccc2)C1` (centres undefined), the EC50 in assay [1] is > 260 µM (inactive).

For the compound `CCC(C)(C)n1nnnc1C(c1cc2cc(C)cc(C)c2nc1O)N1CCN(Cc2ccc3c(c2)OCO3)CC1` (centres undefined), the EC50 in assay [1] is > 260 µM (inactive).

Consider `CCOc1ccc(NC(c2ccccn2)c2oc(CO)cc(=O)c2O)cc1` (centres undefined), for which the EC50 is 0.175 µM (active) in assay [2] and 22.2 µM (active) in the assay on H4.

One may read the IC50 as the concentration needed to halve the response being measured. With `CC(C)Cn1c(=O)c2c(nc3n2CCCN3CCc2ccccc2)n(C)c1=O`, the IC50 in [3] was 13.2 µM (active).

Regarding `Cc1cccc(C(=O)Nc2cccc(OCC(=O)O)c2)c1`, the half-inhibitory concentration (IC50) in assay [3] is 7.59 µM (active).

For `Cc1cccc2cc3c(nc12)S/C(=N/CC1CCCO1)N(Cc1ccco1)C3` (centres undefined), the EC50 in assay [1] was 44.6 µM (active).

With `CC(C)(C)C(=O)Nc1scc(-c2ccc(-c3ccccc3)cc2)c1C(=O)O`, the IC50 in [3] was 14.5 µM (active).

Take `CSc1ccc(/C=N\Nc2nncn2N)cc1`: the 50% effective concentration (EC50) in [1] is 141 µM (active).

Consider `COc1ccc2oc(=O)c(-c3nnc(NCc4ccco4)s3)cc2c1`, for which the values for the 50% effective concentration (EC50) (in [4]; in assay [2]; in the assay with H4) were 23.1 µM (active), 78.7 µM (active) and 1.91 µM (active), respectively.

As to `C[C@@H]1OC(Nc2ccc(N=Nc3ccccc3)cc2)[C@H](O)[C@H](O)[C@H]1O` (some centres undefined), the EC50 in assay [4] is 16.9 µM (active); in assay [2], 54.8 µM (active); in the assay with H4, 11.1 µM (active).

Consider `Cc1cccc(N2CCN(C(=O)c3ccc(CNc4c(N5CCC(C)CC5)c(=O)c4=O)cc3)CC2C)c1` (centres undefined), for which the IC50 in assay [3] was 14.5 µM (active).

The AC50 is the concentration giving half of the maximal activity seen. Take `CCCCCC(=O)Cc1cc(O)cc2c1C(=O)Oc1cc(O)c(C(=O)O)c(CCCCC)c1O2` [PHYSODIC ACID]: the EC50 in assay [5] is 2.36 µM (active); at Streptokinase A, 15.9 µM (active); in the assay on Streptococcus it was > 150 µM (not active); at Protein RecA, 3.23 µM (active). Further, the AC50 in assay [6] is 2.05 µM (active).

In the case of `COc1ccc(NC(=O)COc2cccc3c2CCN(Cc2cccnc2)C3=O)c(OC)c1`, in [1], the EC50 is > 260 µM (inactive).

As to `CN1C(=O)S/C(=C\c2ccc(-n3cncn3)cc2)C1=O`, the EC50 in [4] is 59.6 µM (active); in assay [2], 32.4 µM (active); with H4 it was > 120 µM (not active).

As for `CC(CC#CCN1CCOCC1)OCCC#N` (centres undefined), the EC50 in assay [1] was > 260 µM (inactive).

In the case of `COc1ccccc1C(=O)Nc1nnc(C)s1`, the EC50 in assay [4] is 0.108 µM (active); in assay [2], 4.92 µM (active); with H4, 26.3 µM (active).

As for `Cc1n[nH]c(O)c1/C=N/Cc1cccs1`, the EC50 in [1] was > 260 µM (inactive).

On to `O=S(=O)(Nc1ccc(-c2nnc3n2CCCCC3)cc1)c1ccc2nc(O)oc2c1`, for which, in assay [1], the EC50 is > 260 µM (inactive).

Regarding `O=C(Cc1c(O)c2ccccc2[nH]c1=O)NCc1ccccc1`, the EC50 in assay [1] is > 260 µM (inactive).

In the case of `COC(=O)c1nnn(CC(=O)NC(=O)Nc2ccc(F)cc2)c1C(=O)OC`, in assay [1], the EC50 was > 260 µM (inactive).

Consider `CCN1CCCC1CNC(=O)c1ccc2c(c1)N(Cc1ccccc1F)C(=O)c1ccccc1S2(=O)=O` (centres undefined), for which, in assay [3], the IC50 is 11.2 µM (active).

In the case of `Cc1cc(C)c(Cn2c3ccccc3c3cnn(CC(=O)NCCN4CCOCC4)c(=O)c32)c(C)c1`, the IC50 in assay [3] is 15.8 µM (active).

In the case of `CCCOc1ccc(-c2c(=O)n(O)c3ccccc3[n+]2[O-])cc1`, the EC50 is 10.1 µM (active) in [4], 11.6 µM (active) in [2] and 97.6 µM (active) in the assay on H4.

As to `Cc1cc(-c2nnc(-c3cccc(Cl)c3)o2)no1`, the EC50 in [4] is 0.132 µM (active); in [2], 0.318 µM (active); in the assay with H4, 119 µM (active).

Take `Cc1ccccc1Nc1c(-c2ccc(N3CCOCC3)cc2)nc2cnccn12`: the results for the EC50 (in assay [4]; in [2]; with H4) were 15 µM (active), 19.2 µM (active) and 16.6 µM (active), respectively.
